In patent EP0541617B1, “1,4-DISUBSTITUTED PIPERAZINES” (NOVO NORDISK A/S, priority 1990, dated 1992):

Key:
[1] = tested on: Male NMRI mice; assay: Test 2: increase of motility of mice after intravenous administration (photocell crossings); assay type: in vivo; conditions: ED50, i.v., lowest ED50 value determined at a 20 min interval during the 360 min test period
Method: The compounds were also tested for their ability to increase the motility of mice following intravenous administration using the method outlined below.
Male NMRI mice are used (20 ± 2 g). The animals are housed 20-30 per cage under constant temperature (20 ± 1°C) and relative humidity (40-60%). The animals are brought into the experimental room in the afternoon, the day before they undergo testing.
The experimentally-naive, uninjected mice are acclimatized by being placed in a plexiglass box (WLH: 20 x 20 x 38 cm), four per box, for a 120 min period, and then injected with the test compound whereafter they are replaced in the plexiglass box.
The plexiglass box is equipped with a frame of photocells (spaced equidistantly) which are situated so as to detect locomotor behaviour of the animals (1 cm above the floor). The photocell chamber is housed in an sound-insulated, dimly-lit, ventilated chest. As a measure of exploratory behaviour, the number of photocell crossings in a 360 min period is detected using a minicomputer. Testing is made between 7:00 and 17.00 h.
Drugs are injected i.v. simultaneously with start of testing; N = 4/dose; 4-5 doses of test drug is given in a volume of 10 ml/kg. […]

[2] = target: T1, DA-uptake complex (Rattus norvegicus, UniProt P23977); assay: Test 1: inhibition of 3H-GBR 12935 binding in a striatal membrane preparation
T1 construct: in a striatal membrane preparation; from tissue; host or cells: striatum (membrane preparation)
T1 sequence (P23977 whole entry, one chain of several): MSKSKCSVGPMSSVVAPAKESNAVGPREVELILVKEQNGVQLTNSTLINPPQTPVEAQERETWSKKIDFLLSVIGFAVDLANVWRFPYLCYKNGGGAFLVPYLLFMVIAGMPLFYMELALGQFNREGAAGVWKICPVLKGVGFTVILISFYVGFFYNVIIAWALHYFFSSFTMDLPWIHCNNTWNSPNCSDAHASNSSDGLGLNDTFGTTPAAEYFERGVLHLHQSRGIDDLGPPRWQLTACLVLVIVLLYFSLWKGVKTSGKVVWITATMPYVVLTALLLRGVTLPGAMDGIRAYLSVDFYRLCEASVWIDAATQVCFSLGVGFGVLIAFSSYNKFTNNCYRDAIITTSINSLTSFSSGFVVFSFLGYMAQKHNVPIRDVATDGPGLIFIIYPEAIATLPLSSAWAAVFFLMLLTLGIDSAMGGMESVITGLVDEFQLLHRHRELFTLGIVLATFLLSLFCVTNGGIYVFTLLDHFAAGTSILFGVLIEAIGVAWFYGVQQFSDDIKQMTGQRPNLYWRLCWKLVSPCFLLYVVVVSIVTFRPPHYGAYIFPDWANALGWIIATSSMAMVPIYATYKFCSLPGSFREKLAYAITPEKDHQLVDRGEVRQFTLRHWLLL

N#CCCCCN1CCN(CCOC(c2ccc(F)cc2)c2ccc(F)cc2)CC1 [Example 4A, 1-[2-(bis-(4-fluorophenyl)-methoxy)-ethyl]-4-(4-cyanobutyl)-piperazine]
Test 2 [1]: 2.4 mg/kg
IC50 [2]: 18 nM

Fc1ccc(C(OCCN2CCN(CCCc3ccccc3)CC2)c2ccc(F)cc2)cc1 [GBR 12909, 1-(2-(bis(4-fluorophenyl)-methoxy)-ethyl)-4-(3-phenyl-propyl) piperazine, reference compound]
Test 2 [1]: 2.3 mg/kg
